Data set [1] has as its target T1, FPR2 (Homo sapiens, UniProt P25090).
T1 construct: expressed in transfected cells; host or cells: HEK293, transient transfection
The experiment in a line: BRET analysis of β-arrestin 2 recruitment. The data set is classed as cell-based. As to conditions: HEK293, FPR2-Rluc8 + β-arrestin 2-YFP, 37 °C. The procedure: (§1) Since these modifications of WKYMVm altered the relative affinity of the compounds to bind to FPR2, a further series of bioluminescence resonance energy transfer (BRET) assays were conducted to determine if there was any change in efficacy, specifically the ability to recruit molecular effectors such as G‐protein or β‐arrestin.^[ [28], [29] ^] Briefly, HEK293 cells were transiently transfected with FPR2‐Rluc8 (donor) in combination with and either mGsi‐Venus or β‐arrestin 2‐YFP (acceptors) and replated after 24 h into white opaque 96‐well plates. Cells were assayed 24 h later at 37 °C, in HEPES‐buffered saline solution (HBSS) with coelenterazine H (5 μM). Cells were then stimulated with increasing concentrations of WKYMVm or analogs. Luminescence and fluorescence values were measured at 460/30 nm (FPR2) and […] (mini‐Gsi or β‐arrestin protein), respectively, and the acceptor: donor ratio was determined, normalized by subtraction of the ratio observed in untreated cells (Figure 7 ). […]
(§2) BRET analysis of β-Arrestin and mini-Gsi recruitment: HEK293 cells were grown on 6 well plates until 90-95% confluency was reached. […] Cells were then stimulated with increasing concentrations of WKYMVm and analysed using ClarioStar Plus plate reader (BMG Labtech) at 10 minutes post agonist addition. […]
T1 sequence (P32121 whole entry partner, one chain of several): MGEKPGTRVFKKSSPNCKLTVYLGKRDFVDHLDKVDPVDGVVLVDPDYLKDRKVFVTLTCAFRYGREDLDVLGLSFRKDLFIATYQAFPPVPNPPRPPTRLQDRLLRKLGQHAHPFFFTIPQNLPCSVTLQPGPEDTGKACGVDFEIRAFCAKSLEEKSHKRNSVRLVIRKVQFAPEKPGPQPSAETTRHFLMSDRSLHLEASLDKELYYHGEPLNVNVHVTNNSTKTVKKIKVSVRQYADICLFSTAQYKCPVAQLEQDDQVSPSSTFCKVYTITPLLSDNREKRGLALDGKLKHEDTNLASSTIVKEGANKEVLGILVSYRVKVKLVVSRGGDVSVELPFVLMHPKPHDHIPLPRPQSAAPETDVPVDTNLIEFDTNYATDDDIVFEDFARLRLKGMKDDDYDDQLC

In data set [2] the target is T2, FPR2 (Homo sapiens, UniProt P25090).
T2 sequence (P25090 1-351): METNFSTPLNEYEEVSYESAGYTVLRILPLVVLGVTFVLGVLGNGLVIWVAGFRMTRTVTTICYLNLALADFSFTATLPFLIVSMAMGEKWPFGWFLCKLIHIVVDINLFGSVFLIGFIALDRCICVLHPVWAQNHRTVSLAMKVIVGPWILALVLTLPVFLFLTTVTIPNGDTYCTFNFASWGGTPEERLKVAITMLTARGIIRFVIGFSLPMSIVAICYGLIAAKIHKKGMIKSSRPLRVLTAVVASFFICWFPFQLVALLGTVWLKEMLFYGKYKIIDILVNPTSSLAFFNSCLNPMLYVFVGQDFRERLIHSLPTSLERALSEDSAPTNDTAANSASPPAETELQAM
The experiment in a line: Competition binding against K(5/6-FAM)-WKYMVm, flow cytometry. As to conditions: for IC50: binding affinity (order of magnitude), order of magnitude. Also on record: FLAG (N); expressed in transfected cells. As for the experimental part: Subsequently, mean fluorescence was measured using flow cytometry (Attune NxT). Data was expressed as a percentage of the maximum binding (i.e., no competitor) and errors were determined as a result of three independent experiments performed in duplicate (Figure 5 ).
Cell Culture and Transfection: Constructs were either transiently or stably expressed in native Human Embryonic Kidney 293 (HEK293) cells and maintained in DMEM containing 10% FCS. Transfections were performed using PEI at a ratio of DNA:PEI of 1:4 for all studies. […]
Competition Binding: Competition binding was performed using a fluorescently labelling ligand using an assay analogous to the classical radiolabelled method.[1] Briefly, human embryonic kidney 293 (HEK293) cells stably expressing human Formyl […]
and incubated for 90 min on ice in the dark to allow equilibrium binding. Subsequently, mean fluorescence was measured by flow cytometry using the Attune NxT. Data was expressed as a percentage of maximum binding (i.e. no competitor) and analysed via nonlinear regression one site model of equilibrium. IC50 values were determined using GraphPad PRISM software.
(In general: Flow cytometry measures light scatter and fluorescence of single cells or particles in a stream.)

Data set [3] has as its target T2, FPR2. The experiment in a line: BRET analysis of mini-Gsi recruitment. The data set is classed as cell-based. To be noted: HEK293, FPR2-Rluc8 + mGsi-Venus, 37 °C. Also on record: expressed in transfected cells; host or cells: HEK293, transient transfection. The procedure:
as §1, §2
Background: Bioluminescence resonance energy transfer reports proximity on the nanometre scale.

The test system of data set [4] is T. brucei. The experiment in a line: Trypanocidal activity against growing cells. As to conditions: for EC50: Trypanosoma brucei. The data set is classed as cell-based, Trypanosoma brucei. The source says: (§3) Accordingly N‐Boc amino acid esters 20a–d were hydrolyzed to their free carboxylic acids 25a–d and then progressed in each case to the corresponding Weinreb–Nahm amides^[ [33] ^] 26a–d. N‐Boc deprotection followed by coupling to N‐Boc‐tryptophan generated dipeptides 27a–d as the required precursors for cyclization. The intramolecular Pictet–Spengler condensations, followed a previous protocol^[ [19] ^] and 4‐monofluoro 28a, 3,5‐difluoro‐ 28b, and 2,3,4,5,6‐pentafluoro‐ 28d keto‐piperazines could be prepared following this method. It is noteworthy that the pentafluoro‐ analog was accompanied by what appeared to be a high level of defluorinated side products, however 28d was conveniently purified by HPLC rather than column chromatography. […] Thus, 4‐monofluoro‐ 28a, 3,5‐difluoro‐ 28b, and 2,3,4,5,6‐pentafluoro‐ 28d cyclohexyl‐amino acid tryptophan diketopiperazines were prepared and explored in antitrypanosomal assays. Given the importance of molecular lipophilicity in the context of medicinal chemistry, a Log P assessment (HPLC) was made of the diketopiperazines products 28a, 28b, and 28d as illustrated in Table 1 . As anticipated, there is an increase in polarity (LogP reduction) as the number of fluorines increases. We also know from previous work[[6b]] that the Ph ring is more polar than cyclohexane but less polar than the progressively fluorinated cyclohexane rings. The keto‐piperazines 28a, 28b, and 28d were assayed^[ [20] ^] against growing cells of T. brucei and T. cruzi, as well as the human cell line, HeLa and the data is presented in Table 1.
Bioactivities assays of Janus face Tryptophan
Parasites were grown in different medium (e.g. T. brucei was grown in HMI-11 medium) with 10% heat-inactivated foetal bovine serum. parasites were counted using CASY TT Cell Counter. Fluorescence was recorded using a FLx 800 plate reader (BioTek) with an excitation wavelength 530–535 nm and emission wavelength of 590–610 nm using Gen5 Reader Control 2.0 Software (BioTek). EC50 values were determined using a 4-parameter non-linear logistic regression equation using GraFit 5.0 (Erithacus Software). SD values were calculated based on curve fitting to n biological replicates performed in parallel.

The nature of another data set: Log P assessment (HPLC). The data set is classed as physicochemical.
From the text: as §3

On the set-up of data set [5]: method as in PMID 29732086. To be noted: ref 6a; cited from earlier work.
Data set [6] concerns T. brucei. Details: method as in PMID 34927802. As to conditions: previously reported; cited from earlier work.
Data set [7] addresses T3, formyl-peptide receptor type 2 (FPR2), on HEK293 cells (human, UniProt P25090 1-351).
T3 chain: T2 sequence (P25090 1-351)
The experiment in a line: FACS; competition with K(5/6-FAM)-WKYMVm; printed as Log IC50 -5.80.

The target of data set [8] is T3, formyl-peptide receptor type 2 (FPR2), …. Kind of data set: FACS; competition with K(5/6-FAM)-WKYMVm; printed as Log IC50 -5.33.
Data set [9] shares this target. The experiment in a line: FACS; competition with K(5/6-FAM)-WKYMVm; printed as Log IC50 -7.24.
For data set [10] the target is unchanged. Kind of data set: FACS; competition with K(5/6-FAM)-WKYMVm; printed as Log IC50 -6.29.

Read-outs that look alike come from different tables or passages of the source. Numbered stars: 1 amine (or outer) side, 2 acyl side, 3 side chain; on linkers, the order of the positions; unused ones are H or OH. Square brackets hold non-standard residues; d marks the D form. Ends that are not written are not given here. Peptide text beside a SMILES is read from it. X3 = O=C([C@H](C[C@@H]1[C@H](F)C[C@H](F)C[C@@H]1F)N[*:1])[*:2]; X2 = O=C([C@H](C[C@@H]1C[C@H](F)C[C@H](F)C1)N[*:1])[*:2]; X1 = O=C([C@H](C[C@H]1CC[C@@H](F)CC1)N[*:1])[*:2]; Phe(F5) = N[C@@H](Cc1c(F)c(F)c(F)c(F)c1F)C(=O)O; Phe(4-F) = N[C@@H](Cc1ccc(F)cc1)C(=O)O

On to `CSCC[C@H](NC(=O)[C@H](C[C@H]1CC[C@@H](F)CC1)NC(=O)[C@H](CCCCN)NC(=O)[C@@H](N)Cc1c[nH]c2ccccc12)C(=O)N[C@H](C(=O)N[C@H](CCSC)C(N)=O)C(C)C` [23a] (H-WK[X1]MV[dM]-NH2; N-terminus assumed), for which the “efficacy of β-arrestin recruitment” value at FPR2 [1] is given as “comparable efficacy”. Further, on FPR2 [2] (comparison within the peptide series), the “relative binding affinity” value is “highest affinity but significantly weaker than that of the WKYMVm 13”. Also, the “efficacy of Gi (mini-Gsi) recruitment” value on FPR2 [3] was “comparable efficacy”.
With `CSCC[C@H](NC(=O)[C@H](C[C@@H]1C[C@H](F)C[C@H](F)C1)NC(=O)[C@H](CCCCN)NC(=O)[C@@H](N)Cc1c[nH]c2ccccc12)C(=O)N[C@H](C(=O)N[C@H](CCSC)C(N)=O)C(C)C` [23b] (H-WK[X2]MV[dM]-NH2), the IC50 at FPR2 [2] is around 0.1 µM.
Molecule `CSCC[C@H](NC(=O)[C@H](C[C@@H]1[C@H](F)C[C@H](F)C[C@@H]1F)NC(=O)[C@H](CCCCN)NC(=O)[C@@H](N)Cc1c[nH]c2ccccc12)C(=O)N[C@H](C(=O)N[C@H](CCSC)C(N)=O)C(C)C` [23c] (H-WK[X3]MV[dM]-NH2) registered an IC50 at FPR2 [2] of around 1 µM.
Regarding `O=C1NC(CC2CC(F)CC(F)C2)C2NC1Cc1c2[nH]c2ccccc12` (stereo not drawn) [28b], in the data set with T. brucei [4], it took 11.3 ± 0.73 µM to reach a half-maximal effect (EC50). Further, the chromatographic logP in “Log P assessment (HPLC)” is 2.92.
In the data set on T. brucei [4], `O=C1NC(CC2C(F)C(F)C(F)C(F)C2F)C2NC1Cc1c2[nH]c2ccccc12` (stereo not drawn) [28d] displayed a 50% effective concentration (EC50) of 22 ± 2.12 µM. The “trypanocidal activity against T. brucei” value in the data set with T. brucei [4] (comparison within series and with 29) is “least active compound”. In the data set “Log P assessment (HPLC)”, this molecule came in with a chromatographic logP of 2.58.
As for `O=CC(CC1CCNC1=O)NC(=O)C(CC1C(F)C(F)C(F)C(F)C1F)NC(=O)c1cc2ccccc2[nH]1` (stereo not drawn) [compound 8], the “Log P” value in data set [5] is reported as 0.69.
Consider `COC(=O)C=CC(CC1CCNC1=O)NC(=O)C(CC1C(F)C(F)C(F)C(F)C1F)NC(=O)C=Cc1ccccc1` (stereo not drawn) [compound 9], for which the “Log P” value in data set [5] is 1.21.
With `CSCC[C@H](NC(=O)[C@H](Cc1ccc(O)cc1)NC(=O)[C@H](CCCCN)NC(=O)[C@@H](N)Cc1c[nH]c2ccccc12)C(=O)N[C@H](C(=O)N[C@H](CCSC)C(N)=O)C(C)C` [compound 13, Trp‐Lys‐Tyr‐Met‐Val‐D‐Met‐NH2, reference compound], the “efficacy of β-arrestin recruitment” value at FPR2 [1] is recorded as “most efficacious”. For the same molecule, the “efficacy of Gi (mini-Gsi) recruitment” value on FPR2 [3] is given as “most efficacious”.
For `CSCC[C@H](NC(=O)[C@H](Cc1ccc(F)cc1)NC(=O)[C@H](CCCCN)NC(=O)[C@@H](N)Cc1c[nH]c2ccccc12)C(=O)N[C@H](C(=O)N[C@H](CCSC)C(N)=O)C(C)C` [compound 24] (H-WK[Phe(4-F)]MV[dM]-NH2), the half-maximal inhibitory concentration (IC50) at FPR2 [2] was around 0.1 µM.
The same measure, in the same setting: the figure for `CSCC[C@H](NC(=O)[C@H](Cc1c(F)c(F)c(F)c(F)c1F)NC(=O)[C@H](CCCCN)NC(=O)[C@@H](N)Cc1c[nH]c2ccccc12)C(=O)N[C@H](C(=O)N[C@H](CCSC)C(N)=O)C(C)C` [compound 25] (H-WK[Phe(F5)]MV[dM]-NH2) is around 1 µM.
As to `O=C1NC(Cc2ccccc2)C2NC1Cc1c2[nH]c2ccccc12` (stereo not drawn) [compound 29], in the data set on T. brucei [6], the EC50 was 52.1 ± 3.5 µM.
In the case of WK[all‑cis trifluorocyclohexylalanine]MV[dM]-NH2 [W-peptide analog 23c (all-cis trifluorocyclohexylalanine in place of Tyr3 of WKYMVm)], in [7], the IC50 worked out at 1.58 µM.
In data set [8], WK[all‑cis pentafluorocyclohexylalanine]MV[dM]-NH2 [W-peptide analog 23d (all-cis pentafluorocyclohexylalanine in place of Tyr3 of WKYMVm)] came in with an IC50 of 4.68 µM.

B1: W-peptide analog 24 (4-fluorophenylalanine in place of Tyr3 of WKYMVm) (peptide)
peptide: WK[Phe(4-F)]MV[dM]-NH2
modifications: N-terminus assumed
SMILES: CSCC[C@H](NC(=O)[C@H](Cc1ccc(F)cc1)NC(=O)[C@H](CCCCN)NC(=O)[C@@H](N)Cc1c[nH]c2ccccc12)C(=O)N[C@H](C(=O)N[C@H](CCSC)C(N)=O)C(C)C
notes: last residue D-methionine; also called 4-fluorophenyl-modified peptide 24; 4-fluorophenylalanine analog 24; source: synthetic peptide (microwave-assisted SPPS, preparative HPLC)
With B1, the IC50 in data set [9] came out at 0.0575 µM.

B2: W-peptide analog 25 (pentafluoroaryl phenylalanine in place of Tyr3 of WKYMVm) (peptide)
peptide: WK[Phe(F5)]MV[dM]-NH2
modifications: N-terminus assumed
SMILES: CSCC[C@H](NC(=O)[C@H](Cc1c(F)c(F)c(F)c(F)c1F)NC(=O)[C@H](CCCCN)NC(=O)[C@@H](N)Cc1c[nH]c2ccccc12)C(=O)N[C@H](C(=O)N[C@H](CCSC)C(N)=O)C(C)C
notes: last residue D-methionine; also called pentafluoroaryl motif; source: synthetic peptide (microwave-assisted SPPS, preparative HPLC)
B2: in data set [10], the concentration for half-maximal inhibition (IC50) stood at 0.513 µM.

One may read the IC50 as the midpoint of a concentration-inhibition curve. Read a high IC50 as a need for much substance. A word on the EC50: it is the midpoint of the concentration-response curve. As usually defined, the chromatographic logP is lipophilicity estimated from chromatographic retention. A high value points to higher lipophilicity. Broadly, the Log P is a log measure of how a compound divides between an organic and an aqueous phase.

(Values after paper PMC12631002, “Bioactivity Profiles of Progressively Ring‐Fluorinated Cyclohexyl Motifs in the WKYMVm Peptide as Formylpeptide FPR2 Agonists and in Keto‐Piperazines as Antitrypanosome Agents” (Chembiochem, 2025).)
